This is an account of results in patent US20070203079A1, “Methods of using small molecule compounds for neuroprotection” (priority 2005, published 2007).

Each structure is given as a SMILES string. Where a name gives a salt, the structure may show the parent alone. Marks after values point to notes of the source that are not given here.

The test system of series [1] is Pdat-1::GFP+Pdat-1::α-synuclein+Pdat-1:: torsinA (ΔE) worms. Description: α-synuclein toxicity assay, mutant torsinA. It counts as in vivo, C. elegans. From the text:
(§1) We have previously shown that torsinA can prevent dopamine (“DA”) neuron degeneration resulting from overexpression of α-synuclein in the DA neurons of C. elegans, while torsinA (“ΔE”) has a reduced neuroprotection (Cao et al., J Neurosci, 2005, 25(1): 3801-3812). Specifically, only 26.1±5.3% of the worms expressing Pdat-1::GFP+Pdat-1::α-synuclein maintained all 4 wildtype CEP DA neurons as 4 day adults while the percentages of the worms expressing Pdat-1::GFP+Pdat-1::α-synuclein+Pdat-1::torsinA and Pdat-1::GFP+Pdat-1::α-synuclein+Pdat-1:: torsinA (ΔE) are 57.3±1.6% and 42.2±7.3%, respectively (Cao et al., J Neurosci, 2005, 25(1): 3801-3812) (FIG. 8).
(§2) All molecules are coded by Prestwick Library number. TorsinA-dependent compounds identified from the aggregation assay have torsinA-specific effects and, therefore, are likely to function in the same manner in the α-synuclein toxicity assay. All three α-synuclein transgenic lines were exposed to the five torsinA-dependent compounds to determine their torsinA-specificity (FIG. 9). As expected, none of these compounds had any effect in Pdat-1::GFP+Pdat-1::α-synuclein when torsinA expression is absent.

In series [2] the test system is Pdat-1::GFP+Pdat-1::α-synuclein+Pdat-1::torsinA worms. Description: α-synuclein toxicity assay, wt torsinA. Format: in vivo, C. elegans.
Description: as §1, §2

In series [3] the test system is protein misfolding and aggregation in transgenic worms. The series is described as follows: Preventative assay of protein aggregation (drug from hatching to L2 stage). It counts as in vivo, C. elegans. The following applies: exposure from hatching to L2 stage; scored at L3 and young adult. On the procedure:
To see the preventative effects of the candidate drug compounds on protein misfolding and aggregation, five gravid adult worms were placed onto each drug plate and grown at 20° C. for approximately 3 days. 35-40 Fl worms at L2 stage were picked and transferred to a control plate with the same concentration of control solvent compared to the drug plate. Thirty worms at L3 stage were counted for aggregate number 8 hours later. Thirty young adults were analyzed 32 hours later.
To calculate the scaled effectiveness of special regimen of drugs on worms based on standardized decrease in protein aggregates. The following formula was used: (A−B)/(A−C)×100%, where
A=number of aggregates for worms growing on solvent control plates
B=number of aggregates for worms grown on the specific drug plate for the entire life of the worms
C=number of aggregates for worms that received pre-L2 exposure and were then removed to solvent control plates
If the regimen has no effect, the value would equal 0%. Conversely, if the regimen was as effective as raising the worms on the drug for their entire life, the value would equal 100%.

For series [4] the following is noted: 1 gram/kg dose, fasting normal individual; cited from earlier work.
Series [5] concerns worms containing Punc-54::Q82::GFP+Punc-54::torsinA+Punc54::torsinA (ΔE). The series is described as follows: Screen for reduction of polyglutamine protein aggregates in worms with wt and mutant torsinA. The following applies: differentiated by Q82::GFP lines without torsinA, with wt torsinA or with mutant torsinA. It counts as in vivo, C. elegans. The procedure: (§3) C elegans nematodes were grown at 20° C. on NGM plates as described by Brenner (Brenner, Genetics, 1974, 77: 71-94). Several transgenic C. elegans lines were used for primary screens of the Prestwick small molecule library. A transgenic worm line expressing Punc-54::Q82-GFP; with both wild type (“wt”) (Punc=54: :torsinA) or mutant (Punc-54::torsinA(ΔE)). Torsin-A expresses a phenotype that results in visible protein aggregation under fluorescent microscope. Transgenic worms were plated on drug plates and progeny were studied for a return to soluble protein.
(§4) Drugs were administered to C. elegans according to a standard procedure (Rand and Johnson, Methods Cell Biol, 1995, 48: 187-204), by mixing the solubilized drug with the agar medium on which the worms are grown. This mode of administration allows the continuous exposure of worms to the drug.
Each drug was first dissolved in an appropriate solvent, followed by adding the drug solution into pre-autoclaved media, with the volume of drug solution already taken into account. […] Each plate was seeded with 100 μl concentrated E. coli OP50 bacteria.
(§5) The screening assays used to identify the compounds use protein aggregation readouts to determine the specificities of molecular action. […]
(§6) The methods for the aggregate analysis assay are described in Caldwell et al. (Hum Mol Genetics, 2003, 12(3): 307-319). […] MetaMorph Software (Universal Imaging Inc.) was used for pseudocoloration of images, image overlay, and aggregate size quantitation. For each worm line analyzed, average aggregate size was determined by capturing images of all aggregates in the posterior region of 30 L3-staged animals (for Q82::GFP aggregates) or all aggregates in 30 adult animals/day (for Q19::GFP analyses) at 1000× magnification. […]
(§7) To see the effect of the candidate compounds on suppressing protein misfolding and aggregation, five gravid adult worms were placed onto each drug plate and grown at 20° C. for approximately 3 days. Thirty Fl worms at L3 stage and young adult stage were counted for aggregate number.

The subject of series [6] is worms expressing Punc-54::Q82::GFP+Punc-54::torsinA with wt torsinA only. Description: Protein aggregate assay in worms with wt torsinA only. It counts as in vivo, C. elegans. The procedure: as §3, §4
Each drug was first dissolved in an appropriate solvent, followed by adding the drug solution into pre-autoclaved media, with the volume of drug solution already taken into account. […]
as §5, §6, §7

In series [7] the test system is transgenic worms containing the transgene Pdat-1::GFP without any torsinA expression. Description: 6-OHDA dopaminergic neurodegeneration in worms without torsinA. It counts as in vivo, C. elegans. The following applies: no torsinA expression.
The test system of series [8] is transgenic worm line Pdat-1::CAT-2. The series is described as follows: Neurodegeneration by overexpression of cat-2 (tyrosine hydroxylase). Format: in vivo, C. elegans. From the text:
Overexpression of cat-2, the worm homologue for tyrosine hydroxylase, results in increased intraneuronal dopamine production and a characteristic loss of dopaminergic neurons in 75% of transgenic worms as compared to wild type (Cao et al., J Neurosci, 25(1):3801-3812). Co-expression of worm or human torsin proteins reduces the loss of dopaminergic neurons to a slight degree although neuronal degeneration is still present. The purpose of these experiments was to determine the effect of small molecule compounds in the Prestwick library in another different C. elegans model of neurodegeneration.
Worms were cultured using the same methods described above. A transgenic worm line expressing Pdat-1::CAT-2 expresses a phenotype that results in visible neurodegeneration at all developmental stages in an integrated line, in which only approximately 55% of 7 day old animals maintained all four CEP neurons. […] Compound 166 is an example of one such compound.
To further examine the neuroprotective effect of meclofenamic acid and lidocaine, we used a transgenic line (Pdat-1::CAT-2) we previously described (Cao et al., J Neurosci, 2005, 25(1): 3801-3812). Overexpression of cat-2, the C. elegans homolog of the tyrosine hydroxylase (“TH”) gene, causes a high level of DA production and as a result, DA neuron degeneration is observed (Cao et al., J Neurosci, 2005, 25(1): 3801-3812). […] We also tested whether meclofenamic acid was able to suppress CAT-2-induced neurodegeneration. […] Therefore, meclofenamic acid can protect DA neurons from degeneration produced by overexpression of the dopamine precursor, tyrosine hydroxylase.

Series [9] deals with GFP::DAT-1. The series is described as follows: Pdat-1::GFP::DAT-1 expression within DA neurons. It counts as in vivo, C. elegans. The following applies: for Neurons with cell body and dendritic/axonal GFP: water control 70%; for Neurons with cell body and dendritic/axonal GFP / Mean pixel intensity of cell bodies ± SEM (fluorescence intensity): sodium salt; for Mean pixel intensity of cell bodies ± SEM (fluorescence intensity): water control 1970 ± 80, compounds at 1.85, 1.49, 1.86 mM.

For series [10], the system named is worms expressing Punc-54::Q82::GFP+Punc-54::torsinA (ΔE) with a mutant torsinA only. The series is described as follows: Protein aggregate assay in worms with mutant torsinA only. It counts as in vivo, C. elegans. On the procedure:
C elegans nematodes were grown at 20° C. on NGM plates as described by Brenner (Brenner, Genetics, 1974, 77: 71-94). Several transgenic C. elegans lines were used for primary screens of the Prestwick small molecule library. A transgenic worm line expressing Punc-54::Q82-GFP; with both wild type (“wt”) (Punc=54: :torsinA) or mutant (Punc-54::torsinA(ΔE)). Torsin-A expresses a phenotype that results in visible protein aggregation under fluorescent microscope. Transgenic worms were plated on drug plates and progeny were studied for a return to soluble protein. […]
as §5, §6

Setting [11] is: Pdat-1::GFP::DAT-1, listed as Meclofenamic acid sodium salt.
Setting [12] is: Pdat-1::GFP::DAT-1, listed as meclofenamic acid.

Regarding `CCn1cc(C(=O)O)c(=O)c2ccc(C)nc21` [Compound 187, Nalidixic Acid], the “enhanced DA neuron survival” value in series [1] is “no significant neuroprotection”. Moreover, the “enhanced wild type DA neuron survival” value in series [2] came to 28.9±4.9%. In series [3], the “preventative effect on protein aggregation” value was “seem to be beneficial”. The half-life entry in series [4] is “about 90 minutes”. Moreover, the “Specificity in worm assay” value in [5] is “wt torsinA”. Moreover, the “reduction of protein aggregation” value in [6] is on record as “reduced protein aggregation”.
Take `Cc1ccc(Cl)c(Nc2ccccc2C(=O)O)c1Cl` [Compound 206, Meclofenamic acid sodium salt]: in [1], the “enhanced DA neuron survival” value is listed as 25±1.2%. Moreover, the “reduction of 6-OHDA-mediated neurodegeneration” value in series [7] is “reduced the 6-OHDA-mediated neurodegeneration”. Moreover, the “enhanced wild type DA neuron survival” value in [2] is “failed to show any significant neuroprotection”. In [3], the “preventative effect on protein aggregation” value is given as “seem to be beneficial”. Further, the “neuroprotective effect against CAT-2-induced neurodegeneration” value in series [8] (Pdat-1::CAT-2) is 19±1.1%. In series [8] (Pdat-1::CAT-2, result in words), the “neuroprotective action on dopaminergic neurons overexpressing cat-2” value is “demonstrated a reduction in the standardized decrease in dopaminergic neurodegeneration”. For the same compound, in [9] (Pdat-1::GFP::DAT-1, water control 0%), the “Worms with no GFP” value is reported as 4.2%. In addition, in [9] (Pdat-1::GFP::DAT-1, water control 30%), the “Neurons with cell body GFP only” value is recorded as 51.1%^e. In addition, in series [9] (setting [11]), the “Neurons with cell body and dendritic/axonal GFP” value came to 44.7%^d; the “Mean pixel intensity of cell bodies ± SEM (fluorescence intensity)” value was determined as 1740 ± 64 A.U. Besides, in series [9] (setting [12]), the “Neurons with cell body and dendritic/axonal GFP” value was 44.7%; the “Mean pixel intensity of cell bodies ± SEM (fluorescence intensity)” value amounted to 1740 A.U. For the same compound, in series [9] (result in words), the “effect on GFP::DAT-1 level” value is “can down-regulate the level of DAT-1 protein directly”. For the same compound, the reduction of aggregation entry in series [10] is listed as “reduced aggregation”.
